target: T1, AM2 receptor (1321N1 cells transfected with CALCRL+RAMP3) (Homo sapiens, UniProt O60896+Q16602); test: AM2 receptor inhibition, LANCE cAMP agonist-antagonist competition assay; type: cell-based; conditions: inhibition of AM induced cAMP activation, read-out: AM2 D2 protocol: pIC50 (converted)
T1 construct: host or cells: 1321N1 cells
Experimental: Compounds were assessed for their ability to inhibit ligand-induced elevations of cAMP, using the Perkin Elmer LANCE cAMP assay using commercially-available cells expressing a specific receptor of interest using the following general procedure:
Compounds were prepared in dimethyl sulfoxide (DMSO—99.9% pure) (Sigma Aldrich, Cat #: D4540) added to powder stocks to produce a 20 mM solution (100% DMSO) that was sonicated at 37° C. for 10 minutes to fully dissolve the compounds. The 20 mM stocks were diluted further in DMSO to produce a 2 mM solution that was sonicated at 37° C. for 10 minutes. 2 mM stocks were dissolved in assay/stimulation buffer to produce a 400 μM solution that was sonicated at 37° C. for 10 minutes for all cAMP assays. All stocks were stored at −20° C. Then serial dilution (Dilution factor: 10) was performed to achieve the desire experimental concentrations.
Competition assays were performed according to the manufactures instructions using LANCE® TR-FRET cAMP assay kit (Perkin Elmer, Cat #: AD0264). Serial dilutions (3 μl/well) of the molecules were plated in a 384-well OptiPlate (Perkin Elmer, Cat #: 6007299) in duplicates. Appropriate controls (100% stimulation: Forskolin and 0% stimulation: Vehicle control) (6 μl/well) were included in each plate for data normalization. Following the compound addition, 6 μl of G-protein coupled receptor overexpressing cells/Alexa Fluor antibody solution (1:100 dilution) was added in each well at a desired density of 2500cells/well. The overexpressing cell lines were purchased from DiscoveRx, Birmingham, UK. After spinning the plate at 1000 rpm for 1 minute and vortexing briefly, the cells were pre-incubated with the compounds for 30 minutes at room temperature (covered). Then 3 μl of the equivalent peptide ligand (EC50 dose) was added to all the wells except vehicle and forskolin controls. The plate were then spun down at 1000 rpm for 1 minute and once finished they were vortexed briefly and covered. Cells were stimulated in the presence of the ligands for 15 minutes at room temperature. After stimulation 12 μl of detection mix (Europium-Chelate streptavidin/biotinylated cAMP tracer solution) was added to all wells and incubated for 60 minutes at room temperature. The plate was then read on the Enspire multimode Plate reader (Perkin Elmer), at; 320/340 nm excitation and 615/665 nm emission was recorded.
Assay/Stimulation Buffer (30 mL)—pH 7.4 • 28 mL Hank's Balanced salt solution (+MgCl2, +CaCl2)—(Thermo Fisher Cat #:14170112) • 150 μl HEPES (1M)—(Thermo Fisher Cat #:15630080) • 400 μl Stabilizer (DTPA) Purified BSA (7.5%)—(Perkin Elmer, Cat #: CR84-100)
The ability of a compound to inhibit the AM induced cAMP activation in AM2 receptor-expressing cells (1321N1 cells transfected with CALCRL+RAMP3, sourced from DiscoverX catalogue number 95-0169C6) was assessed using the protocol above.

T1 sequence (Q16602 23-461): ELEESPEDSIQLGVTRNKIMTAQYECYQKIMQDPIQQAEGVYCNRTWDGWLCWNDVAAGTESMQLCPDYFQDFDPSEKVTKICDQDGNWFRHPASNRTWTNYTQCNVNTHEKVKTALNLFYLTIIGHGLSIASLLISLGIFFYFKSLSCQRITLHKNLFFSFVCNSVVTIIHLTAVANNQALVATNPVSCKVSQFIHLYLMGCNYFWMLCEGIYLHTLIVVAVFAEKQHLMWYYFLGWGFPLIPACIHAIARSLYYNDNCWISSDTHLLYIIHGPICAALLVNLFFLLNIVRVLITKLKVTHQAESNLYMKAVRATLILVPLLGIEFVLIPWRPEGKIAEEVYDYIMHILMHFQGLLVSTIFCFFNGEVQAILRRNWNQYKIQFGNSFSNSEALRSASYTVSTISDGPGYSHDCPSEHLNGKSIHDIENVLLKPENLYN
T1 sequence (O60896 24-148): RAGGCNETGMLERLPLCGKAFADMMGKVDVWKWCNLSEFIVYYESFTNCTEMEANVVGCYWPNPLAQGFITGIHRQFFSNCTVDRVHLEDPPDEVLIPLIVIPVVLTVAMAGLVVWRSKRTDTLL

| SMILES | IC50 [nM] |
| --- | --- |
| CNCc1ccccc1CN(CC(=O)Nc1ccc2c(c1)C[C@@]1(C2)C(=O)Nc2ncccc21)C(=O)C1(C)CCN(C(=O)N2CCC2)CC1 [Example 54, (R)-1-(Azetidine-1-carbonyl)-4-methyl-N-(2-((methylamino)methyl)benzyl)-N-(2-oxo-2-((2′-oxo-1,1′,2′,3-tetrahydrospiro[indene-2,3′-pyrrolo[2,3-b]pyridin]-5-yl)amino)ethyl)piperidine-4-carboxamide] | 3.8 |
| CCC1(C(=O)N(CC(=O)Nc2ccc3c(c2)C[C@@]2(C3)C(=O)Nc3ncccc32)Cc2ccccc2CNC)CCN(C(=O)N2CCC(F)(F)C2)CC1 [Example 108, (R)-1-(3,3-Difluoropyrrolidine-1-carbonyl)-4-ethyl-N-(2-((methylamino)methyl)benzyl)-N-(2-oxo-2-((2′-oxo-1,1′,2′,3-tetrahydrospiro[indene-2,3′-pyrrolo[2,3-b]pyridin]-5-yl)amino)ethyl)piperidine-4-carboxamide] | 24 |
| CCC1(C(=O)N(CC(=O)Nc2ccc3c(c2)C[C@@]2(C3)C(=O)Nc3ncccc32)Cc2ccccc2CNC)CCN(C(=O)[C@H](C)NC)CC1 [Example 94, 4-Ethyl-N-(2-((methylamino)methyl)benzyl)-1-((S)-2-(methylamino)propanoyl)-N-(2-oxo-2-(((R)-2′-oxo-1,1′,2′,3-tetrahydrospiro[indene-2,3′-pyrrolo[2,3-b]pyridin]-5-yl)amino)ethyl)piperidine-4-carboxamide] | 15.1 |
| CNCc1ccccc1CN(CC(=O)Nc1ccc2c(c1)C[C@@]1(C2)C(=O)Nc2ncccc21)C(=O)C1(CC(C)C)CCN(C(C)=O)CC1 [Example 125] | 21.4 |
| CNCc1ccccc1CN(CC(=O)Nc1ccc2c(c1)CC1(C2)C(=O)Nc2ncccc21)C(=O)C1(C)CCN(C(=O)c2ccccn2)CC1 (stereo not drawn) [Example 15, 4-Methyl-N-(2-((methylamino)methyl)benzyl)-N-(2-oxo-2-((2′-oxo-1,1′,2′,3-tetrahydrospiro[indene-2,3′-pyrrolo[2,3-b]pyridin]-5-yl)amino)ethyl)-1-picolinoylpiperidine-4-carboxamide] | 0.759 |
| CNCc1ccccc1CN(CC(=O)Nc1cc2c(cc1C)CC1(C2)C(=O)Nc2ncccc21)C(=O)C1(C)CCNCC1 (stereo not drawn) [Example 128, 4-Methyl-N-(2-((5-methyl-2′-oxo-1,1′,2′,3-tetrahydrospiro[indene-2,3′-pyrrolo[2,3-b]pyridin]-6-yl)amino)-2-oxoethyl)-N-(2-((methylamino)methyl)benzyl)piperidine-4-carboxamide] | 87.1 |
| CNCc1ccccc1CN(CC(=O)Nc1ccc2c(c1)C[C@@]1(C2)C(=O)Nc2ncccc21)C(=O)C1(C)CCN(CC(F)(F)F)CC1 [Example 39, (R)-4-Methyl-N-(2-((methylamino)methyl)benzyl)-N-(2-oxo-2-((2′-oxo-1,1′,2′,3-tetrahydrospiro[indene-2,3′-pyrrolo[2,3-b]pyridin]-5-yl)amino)ethyl)-1-(2,2,2-trifluoroethyl)piperidine-4-carboxamide] | 19.5 |
| CNCc1ccccc1CN(CC(=O)Nc1ccc2c(c1)C[C@@]1(C2)C(=O)Nc2ncccc21)C(=O)C1(C)CCN(Cc2ccccc2)CC1 [Example 40, (R)-1-Benzyl-4-methyl-N-(2-((methylamino)methyl)benzyl)-N-(2-oxo-2-((2′-oxo-1,1′,2′,3-tetrahydrospiro[indene-2,3′-pyrrolo[2,3-b]pyridin]-5-yl)amino)ethyl)piperidine-4-carboxamide] | 6.31 |
| CNCc1ccccc1CN(CC(=O)Nc1ccc2c(c1)C[C@@]1(C2)C(=O)Nc2ncccc21)C(=O)C1(C)CCN(C(=O)C(C)NC)CC1 (stereo partly drawn) [Example 23, 4-Methyl-N-(2-((methylamino)methyl)benzyl)-1-(2-(methylamino)propanoyl)-N-(2-oxo-2-(((R)-2′-oxo-1,1′,2′,3-tetrahydrospiro[indene-2,3′-pyrrolo[2,3-b]pyridin]-5-yl)amino)ethyl)piperidine-4-carboxamide] | 1.38 |
| CNCc1ccccc1CN(CC(=O)Nc1ccc2c(c1)C[C@@]1(C2)C(=O)Nc2ncccc21)C(=O)C1(C)CCN(C(=O)N2CCNCC2)CC1 [Example 56, (R)-4-Methyl-N-(2-((methylamino)methyl)benzyl)-N-(2-oxo-2-((2′-oxo-1,1′,2′,3-tetrahydrospiro[indene-2,3′-pyrrolo[2,3-b]pyridin]-5-yl)amino)ethyl)-1-(piperazine-1-carbonyl)piperidine-4-carboxamide] | 13.2 |
| CCC1(C(=O)N(CC(=O)Nc2ccc3c(c2)C[C@@]2(C3)C(=O)Nc3ncccc32)Cc2ccccc2CNC)CCN(C(=O)N2CC(F)(F)C2)CC1 [Example 109, (R)-1-(3,3-Difluoroazetidine-1-carbonyl)-4-ethyl-N-(2-((methylamino)methyl)benzyl)-N-(2-oxo-2-((2′-oxo-1,1′,2′,3-tetrahydrospiro[indene-2,3′-pyrrolo[2,3-b]pyridin]-5-yl)amino)ethyl)piperidine-4-carboxamide] | 7940 |
| CNCc1ccccc1CN(CC(=O)Nc1ccc2c(c1)C[C@@]1(C2)C(=O)Nc2ncccc21)C(=O)C1(C)CCN(C(=O)C2CCNCC2)CC1 [Example 9, (R)-4-Methyl-N-(2-((methylamino)methyl)benzyl)-N-(2-oxo-2-((2′-oxo-1,1′,2′,3-tetrahydrospiro[indene-2,3′-pyrrolo[2,3-b]pyridin]-5-yl)amino)ethyl)-1-(piperidine-4-carbonyl)piperidine-4-carboxamide] | 5.13 |

The next lines start with the values.

| IC50 [nM] | SMILES |
| --- | --- |
| 2 | CNCc1ccccc1CN(CC(=O)Nc1ccc2c(c1)CC1(C2)C(=O)Nc2ncccc21)C(=O)C1(C)CCN(C(=O)c2cccnc2)CC1 (stereo not drawn) [Example 14, 4-Methyl-N-(2-((methylamino)methyl)benzyl)-1-nicotinoyl-N-(2-oxo-2-((2′-oxo-1,1′,2′,3-tetrahydrospiro[indene-2,3′-pyrrolo[2,3-b]pyridin]-5-yl)amino)ethyl)piperidine-4-carboxamide] |
| 6.92 | CCC1(C(=O)N(CC(=O)Nc2ccc3c(c2)C[C@@]2(C3)C(=O)Nc3ncccc32)Cc2ccccc2CN)CCN(C(C)=O)CC1 [Example 133, (R)-1-Acetyl-N-(2-(aminomethyl)benzyl)-4-ethyl-N-(2-oxo-2-((2′-oxo-1,1′,2′,3-tetrahydrospiro[indene-2,3′-pyrrolo[2,3-b]pyridin]-5-yl)amino)ethyl)piperidine-4-carboxamide] |
| 15.5 | CCC1(C(=O)N(CC(=O)Nc2ccc3c(c2)C[C@@]2(C3)C(=O)Nc3ncccc32)Cc2ccccc2CNC)CCN(C(=O)N2CC(F)C2)CC1 [Example 111, (R)-4-Ethyl-1-(3-fluoroazetidine-1-carbonyl)-N-(2-((methylamino)methyl)benzyl)-N-(2-oxo-2-((2′-oxo-1,1′,2′,3-tetrahydrospiro[indene-2,3′-pyrrolo[2,3-b]pyridin]-5-yl)amino)ethyl)piperidine-4-carboxamide] |
| 1.26 | CCC1(C(=O)N(CC(=O)Nc2ccc3c(c2)C[C@@]2(C3)C(=O)Nc3ncccc32)Cc2ccccc2CNC)CCN(C(=O)c2cncs2)CC1 [Example 86, (R)-4-Ethyl-N-(2-((methylamino)methyl)benzyl)-N-(2-oxo-2-((2′-oxo-1,1′,2′,3-tetrahydrospiro[indene-2,3′-pyrrolo[2,3-b]pyridin]-5-yl)amino)ethyl)-1-(thiazole-5-carbonyl)piperidine-4-carboxamide] |
| 17.8 | CNCc1ccccc1CN(CC(=O)Nc1ccc2c(c1)C[C@@]1(C2)C(=O)Nc2ncccc21)C(=O)C1(C)CCN(C(=O)c2ccc(N)cn2)CC1 [Example 29, (R)-1-(5-Aminopicolinoyl)-4-methyl-N-(2-((methylamino)methyl)benzyl)-N-(2-oxo-2-((2′-oxo-1,1′,2′,3-tetrahydrospiro[indene-2,3′-pyrrolo[2,3-b]pyridin]-5-yl)amino)ethyl)piperidine-4-carboxamide] |
| 115 | CCNCc1ccccc1CN(CC(=O)Nc1ccc2c(c1)C[C@@]1(C2)C(=O)Nc2ncccc21)C(=O)C1(CC)CCN(C(C)=O)CC1 [Example 134, (R)-1-Acetyl-4-ethyl-N-(2-((ethylamino)methyl)benzyl)-N-(2-oxo-2-((2′-oxo-1,1′,2′,3-tetrahydrospiro[indene-2,3′-pyrrolo[2,3-b]pyridin]-5-yl)amino)ethyl)piperidine-4-carboxamide] |

Source: US20230036854A1, “HETEROCYCLIC SPIRO-COMPOUNDS AS AM2 RECEPTOR INHIBITORS” (THE UNIVERSITY OF SHEFFIELD, priority 2018, published 2023)
